A melting point compilation (Tetko et al.)

Compound | melting point [°C]
O=C(CCl)c1ccc[nH]1 | 114 to 116
CCC(Cc1ccccc1Br)C(=O)O (configuration not stated) | 67 to 69
O=S(=O)(Cl)C1c2ccccc2-c2ccccc21 | 84 to 86
O=C(O)c1cccc(Oc2ccc(Cl)c(Cl)c2)n1 | 138 to 140
COc1ccc(NC(C)=O)cc1S(N)(=O)=O | 220 to 222
Nc1n[nH]c(C(=O)O)c1-c1ccccc1 | 269 to 271
Cc1cc(C)cc(CCC(=O)O)c1 | 49 to 51
Cc1cc(F)ccc1-n1ccc(C(=O)O)n1 | 197 to 199
Cc1nn(CCO)c(C(F)(F)Cl)c1C(=O)O | 124 to 126
O=C1CCC2(C(=O)O)Sc3ccccc3N12 (configuration not stated) | 225 to 227
O=C(O)Cc1ccc(NC(=O)C2CCCC2)cc1 | 173 to 175
Nc1cccc(C(=O)Nc2ccccn2)c1 | 111 to 113
Cc1cc(C(=O)O)c(C)n1Cc1ccccn1 | 151 to 153
CCc1nc(C(=O)O)nn1-c1c(Cl)cccc1Cl | 197 to 199
NC1CCC(=O)NC1=O (configuration not stated) | 214 to 216
Nc1cc(Cl)ccc1C(=O)N1CCCCC1 | 103 to 105
CNC(=O)Cn1ccc2ccc(N)cc21 | 134 to 136
O=C(O)C1Cc2ccccc2CN1C(=O)c1ccco1 (configuration not stated) | 143 to 147
O=C(CCl)N(Cc1ccccc1)c1ccccc1 | 79 to 81
Cc1cc(-c2ncc[nH]2)c(=O)[nH]n1 | 254 to 256
O=Cc1c(O)ccc([N+](=O)[O-])c1Cl | 118 to 120
COc1ccc(C=O)cc1Cl | 56 to 58
Nc1ccc(N2C(=O)c3ccccc3C2=O)c(Cl)c1 | 204 to 206
N#Cc1ccc(-c2nnc(CCl)o2)cc1 | 143 to 145
COc1ccsc1C(N)=O | 147 to 149
NS(=O)(=O)c1cccs1 | 142 to 144

Compound | melting point [°C]
COC(=O)c1ccc(=O)[nH]n1 | 188 to 190
CN1C(=O)c2ccc(N)cc2C1=O | 247 to 249
ClCc1ccc(-c2nc3cccc(Cl)c3s2)cc1 | 173 to 175
O=C(O)C=Cc1ccc(S(=O)(=O)NCc2ccco2)cc1 | 213 to 215
O=C(O)c1csc(Br)c1 | 137 to 139
CCNC(=O)CN1CCNCC1 | 83 to 85
CC(CC(=O)O)c1ccccc1Br (configuration not stated) | 61 to 63
CCOc1ccc([N+](=O)[O-])cc1CO | 102 to 104
COc1ccccc1NC(=O)COc1ccc(C(=O)O)cc1OC | 184 to 186
NNc1ccc(S(=O)(=O)Nc2cccc(Cl)c2)cc1[N+](=O)[O-] | 195 to 197
O=C1OC(=O)c2cc(Cl)ccc21 | 96 to 98
O=C(O)c1ccc(CN2C(=O)CNC2=O)cc1 | 282 to 284
O=C(O)Cc1csc(-c2cccs2)n1 | 97 to 99
O=C(O)c1cc2ccc(SC(F)(F)F)cc2[nH]1 | 185 to 187
S=C1NCCO1 | 95 to 97
ClCc1ncc(-c2ccc(Cl)cc2)o1 | 53 to 57
O=C1CCCOc2cc(Br)ccc21 | 39 to 41
O=Cc1ccc(F)c2cccnc12 | 113 to 115
Cc1cc(C(C#N)c2ccc(Cl)cc2)c(Cl)cc1N (configuration not stated) | 147 to 153
Cc1sc2nc(CN3CCOCC3)nc(Cl)c2c1C | 102 to 104
O=C1NCc2ccc(F)cc21 | 203 to 205
NC(C(=O)O)(c1ccccc1F)C(F)(F)F (configuration not stated) | 113 to 115
OCCNc1ncnc2ccccc12 | 172 to 174
O=C(O)CNC(=O)c1ccc(Cl)c(Cl)c1 | 136 to 138
Cc1ccc(Cl)c(OCC(=O)O)c1 | 134 to 136
NC(=O)COc1ccc(Cl)cc1S(=O)(=O)Cl | 143 to 145

Compound | melting point [°C]
CCC(Nc1c([N+](=O)[O-])c(C)nn1C)C(=O)O (configuration not stated) | 129 to 131
CC1Cc2ccccc2N1C(=O)CO (configuration not stated) | 75 to 77
O=[N+]([O-])c1cccc2cc(I)cnc12 | 118 to 120
O=C(O)c1cc(Cl)ccn1 | 170 to 174
CC(C)S(=O)(=O)c1ccc(C(=O)O)cc1 | 186 to 188
O=C(O)c1c2c(nc3ccccc13)C(=Cc1cccs1)CCC2 | 176 to 178
Cc1cc(C)cc(Oc2ccc(CN)cc2C)c1 | 56 to 58
O=C(CCl)c1ccc2c(c1)CCCN2C(=O)c1ccccc1 | 178 to 180
COc1cccc(Oc2ccc(N)cc2)c1 | 62 to 64
Cc1nn(CCO)c(C)c1C=O | 67 to 69
CCc1ccc(N)cc1[N+](=O)[O-] | 44 to 46
CC(=O)N(c1nc(/C=C\C(=O)O)cs1)c1ccccc1F | 195 to 197
O=C(O)CC1CCOCC1 | 59 to 61
CSc1cccc(N)c1C | 44 to 46
Cc1oc(C(=O)O)cc1S(=O)(=O)N(C)C | 151 to 153
Cc1ccc(C)c(S(=O)(=O)NN)c1 | 75 to 77
CC(=O)Nc1ccccc1C=O | 67 to 69
c1n[nH]cc1C1CCCNC1 (configuration not stated) | 71 to 73
Cc1ccc2c(c1)CCC2=O | 69 to 73
CC(C)CNC(=O)NC(=O)CCl | 105 to 107
CC(=O)Nc1c(Cl)cc(Br)c2ccccc12 | 227 to 229
O=C(O)c1cc(=O)[nH]c2cc(F)ccc12 | 323 to 325
COc1cc(F)ccc1[N+](=O)[O-] | 49 to 51
CCCNC(=O)c1cccnc1Cl | 63 to 65
COc1ccc(N)cc1C | 31 to 33
COc1ccc(C(=O)NC2CCS(=O)(=O)C2)cc1N (configuration not stated) | 145 to 147

Compound | melting point [°C]
O=C(CCl)N1CCC(c2nc3ccccc3s2)CC1 | 59 to 61
CC(=O)Nc1ccc(F)c(C(=O)O)c1 | 259 to 261
Cc1cc(C(=O)O)[nH]c(=O)n1 | 209 to 211
CCn1c(CCl)nc2cc(S(=O)(=O)N3CCCCC3)ccc21 | 234 to 236
NS(=O)(=O)Cc1cccnc1 | 154 to 156
O=C(NC1CCN(Cc2ccccc2)CC1)c1ccco1 | 158 to 160
O=c1c([N+](=O)[O-])c(Cl)nc2ccccn12 | 212 to 214
CC(=O)c1cc(F)c(N)c(F)c1 | 69 to 71
O=C(Nc1ccc(C(=O)O)c(O)c1)c1cccc(Br)c1 | 239 to 241
CC(C)(C)c1ccc(C(=O)Nc2ccc(O)cc2)cc1 | 196 to 198
Cn1c(NCCO)nc2ccccc21 | 75 to 77
O=[N+]([O-])c1ccc(Br)c2c1CNCC2 | 81 to 83
COc1cccc(/C=C/C(=O)O)c1OC(F)F | 208 to 210
CC(NC(=O)CCl)C1CC1 (configuration not stated) | 50 to 52
CCCC(C)S(N)(=O)=O (configuration not stated) | 48 to 50
CCOC(=O)c1ccn[nH]1 | 159 to 161
Cc1cc(C(=O)O)cc(C)c1OCC(=O)N1CCCCC1 | 175 to 177
CN1CCN(S(=O)(=O)c2ccc(NN)nc2)CC1 | 168 to 170
O=C(CCl)N(Cc1nnc(-c2ccc(Cl)cc2)o1)C1CC1 | 102 to 104
CCOC(=O)c1sc2ncc(C(=O)OC)cc2c1N | 213 to 215
O=C(Nc1ccc(Cl)cn1)C1CCNCC1 | 137 to 139
CCOC(=O)CCS(=O)(=O)c1ccc(F)cc1 | 38 to 40
ClCc1csc(-c2ccccc2Cl)n1 | 55 to 57
Sc1nc2cc(Cl)ccc2n1CCOc1ccccc1 | 182 to 184
